Assay in all cases: biochemical
Holding throughout (design): Eurofins KinaseProfiler full panel at Km ATP, residual kinase activity (%) relative to DMSO

For one assay, the target named is T1, Aurora-C(h) (Homo sapiens, UniProt Q9UQB9).
T1 construct: gene AURKC
T1 sequence (Q9UQB9 1-309): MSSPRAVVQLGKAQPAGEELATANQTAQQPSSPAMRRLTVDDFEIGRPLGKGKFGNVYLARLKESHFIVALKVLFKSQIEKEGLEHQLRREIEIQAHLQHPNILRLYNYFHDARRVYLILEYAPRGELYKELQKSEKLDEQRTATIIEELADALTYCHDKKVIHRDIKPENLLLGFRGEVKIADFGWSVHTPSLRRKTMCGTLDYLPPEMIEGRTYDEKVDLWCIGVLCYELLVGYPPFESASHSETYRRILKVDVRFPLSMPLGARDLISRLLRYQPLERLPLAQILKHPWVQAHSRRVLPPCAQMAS
The method, boiled down: (§1)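 Radiometric kinase activity assays were run with ATP at Km and compounds at 10 µM, and remaining activity (%) was reported. A separate competitive binding screen measured DNA-tagged kinase displaced from immobilized active-site ligands by qPCR, giving percent kinase still bound at 10 µM compound in DMSO.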

The next assay addresses T2, BRK(h) (Homo sapiens, UniProt Q13882).
T2 construct: gene PTK6
In a few lines: as §1

The target in the next assay is T3, PRKG2(h) (Homo sapiens, UniProt Q13237).
T3 sequence (Q13237 1-762): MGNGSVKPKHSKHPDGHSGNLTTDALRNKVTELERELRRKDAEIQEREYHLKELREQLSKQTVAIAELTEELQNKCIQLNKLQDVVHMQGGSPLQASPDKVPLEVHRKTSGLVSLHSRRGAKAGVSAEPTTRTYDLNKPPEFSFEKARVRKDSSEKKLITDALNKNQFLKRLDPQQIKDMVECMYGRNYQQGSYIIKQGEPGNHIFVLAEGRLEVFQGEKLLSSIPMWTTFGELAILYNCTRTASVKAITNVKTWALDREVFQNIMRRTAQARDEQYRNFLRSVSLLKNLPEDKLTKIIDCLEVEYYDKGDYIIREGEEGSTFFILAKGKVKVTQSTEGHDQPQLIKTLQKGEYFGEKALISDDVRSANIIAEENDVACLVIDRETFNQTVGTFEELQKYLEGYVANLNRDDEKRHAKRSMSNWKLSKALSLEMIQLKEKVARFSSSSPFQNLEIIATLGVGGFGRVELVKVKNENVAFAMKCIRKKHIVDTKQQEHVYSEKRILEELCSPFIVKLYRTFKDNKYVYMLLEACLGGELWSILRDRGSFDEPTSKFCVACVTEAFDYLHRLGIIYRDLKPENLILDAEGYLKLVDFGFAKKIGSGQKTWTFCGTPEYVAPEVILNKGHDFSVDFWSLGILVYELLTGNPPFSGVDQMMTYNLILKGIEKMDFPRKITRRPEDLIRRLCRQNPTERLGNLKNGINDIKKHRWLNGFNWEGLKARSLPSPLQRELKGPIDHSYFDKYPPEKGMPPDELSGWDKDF
In a few lines: as §1

The target in the next assay is T4, TAO1(h) (Homo sapiens, UniProt Q7L7X3).
T4 construct: gene TAOK1
T4 sequence (Q7L7X3 1-1001): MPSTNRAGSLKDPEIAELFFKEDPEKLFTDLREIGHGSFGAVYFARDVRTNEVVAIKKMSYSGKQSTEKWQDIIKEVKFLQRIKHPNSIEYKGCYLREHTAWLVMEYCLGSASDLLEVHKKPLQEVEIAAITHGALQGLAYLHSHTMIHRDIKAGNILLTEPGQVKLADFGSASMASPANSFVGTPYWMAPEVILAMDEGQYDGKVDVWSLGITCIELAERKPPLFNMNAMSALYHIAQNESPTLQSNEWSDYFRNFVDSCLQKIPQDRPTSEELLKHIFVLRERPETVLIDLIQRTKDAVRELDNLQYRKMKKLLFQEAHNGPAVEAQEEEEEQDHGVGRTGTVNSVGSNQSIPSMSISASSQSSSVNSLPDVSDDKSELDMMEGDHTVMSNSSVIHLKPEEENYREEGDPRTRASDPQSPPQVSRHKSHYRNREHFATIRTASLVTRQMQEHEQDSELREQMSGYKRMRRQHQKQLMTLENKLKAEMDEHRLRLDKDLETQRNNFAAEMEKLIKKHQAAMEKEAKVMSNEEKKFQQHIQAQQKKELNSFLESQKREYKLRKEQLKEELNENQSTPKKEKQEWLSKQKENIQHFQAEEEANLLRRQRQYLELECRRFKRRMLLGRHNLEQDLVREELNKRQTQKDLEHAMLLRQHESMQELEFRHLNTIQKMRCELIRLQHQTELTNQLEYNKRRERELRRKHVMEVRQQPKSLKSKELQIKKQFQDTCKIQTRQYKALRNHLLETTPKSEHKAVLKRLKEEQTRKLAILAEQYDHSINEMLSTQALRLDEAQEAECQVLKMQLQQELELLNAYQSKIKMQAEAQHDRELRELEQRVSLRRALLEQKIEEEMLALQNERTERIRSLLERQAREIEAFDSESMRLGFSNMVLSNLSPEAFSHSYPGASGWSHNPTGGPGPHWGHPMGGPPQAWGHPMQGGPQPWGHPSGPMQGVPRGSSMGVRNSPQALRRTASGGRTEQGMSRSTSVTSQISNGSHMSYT
The method, boiled down:
as §1

[1] abbreviates: read-out: Residual activity (%) 5at.
Where [2] appears, read: read-out: Residual activity (%) 5ay.
Where [3] appears, read: read-out: Residual activity (%) 5as.
[4] abbreviates: read-out: Residual activity (%) Spautin-1 5aa.

This is an account of results in paper PMC7827406, “Structure–Activity Relationship (SAR) Study of Spautin-1 to Entail the Discovery of Novel NEK4 Inhibitors” (International Journal of Molecular Sciences, 2021).

SMILES strings stand for the structures. Where two headings read alike, the source gives them in different places.

T2 sequence (Q13882 whole entry): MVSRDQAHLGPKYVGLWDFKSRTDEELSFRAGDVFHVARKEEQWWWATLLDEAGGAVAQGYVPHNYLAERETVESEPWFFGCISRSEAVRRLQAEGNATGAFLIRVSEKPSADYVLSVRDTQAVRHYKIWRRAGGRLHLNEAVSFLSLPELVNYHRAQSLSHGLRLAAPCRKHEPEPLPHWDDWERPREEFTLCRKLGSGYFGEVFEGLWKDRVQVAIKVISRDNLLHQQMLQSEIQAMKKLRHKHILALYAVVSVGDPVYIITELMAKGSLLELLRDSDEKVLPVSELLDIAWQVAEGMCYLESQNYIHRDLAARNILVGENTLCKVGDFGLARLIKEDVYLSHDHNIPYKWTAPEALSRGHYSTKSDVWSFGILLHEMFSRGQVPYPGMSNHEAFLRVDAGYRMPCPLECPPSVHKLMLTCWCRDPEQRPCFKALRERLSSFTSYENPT

On to `Fc1ccc2ncnc(NCCc3ccc(Cl)cc3)c2c1` [5at, N-[2-(4-Chlorophenyl)Ethyl]-6-Fluoro-4-Quinazolinamine], for which the remaining activity at 10 µM worked out at 118% on Aurora-C(h) (setting [1]), 96% at BRK(h) (setting [1]), 79% on PRKG2(h) (setting [1]) and 97% on TAO1(h) (setting [1]).
On to `COc1ccc2ncnc(Nc3cccc(F)c3)c2c1` [5ay, N-(3-Fluorophenyl)-6-Methoxy-4-Quinazolinamine], for which the remaining activity at 10 µM on Aurora-C(h) (setting [2]) is 106%; at BRK(h) (setting [2]), 71%; on PRKG2(h) (setting [2]), 113%; at TAO1(h) (setting [2]) it was 95%.
As for `Fc1ccc(CCNc2ncnc3ccc(F)cc23)cc1` [5as, 6-Fluoro-N-[2-(4-Fluorophenyl)Ethyl]-4-Quinazolinamine], the remaining activity at 10 µM on Aurora-C(h) (setting [3]) amounted to 102%; on BRK(h) (setting [3]), 87%; on PRKG2(h) (setting [3]), 96%; at TAO1(h) (setting [3]) it was 104%.
Regarding `Fc1ccc(CNc2ncnc3ccc(F)cc23)cc1` [5aa, 6-Fluoro-N-(4-fluorobenzyl)-4-Quinazolinamine], the remaining activity at 10 µM at Aurora-C(h) (setting [4]) was determined as 120%; at BRK(h) (setting [4]), 105%; on PRKG2(h) (setting [4]), 103%; on TAO1(h) (setting [4]), 99%.
